According to patent publication EP2246329A1, “4(1H)-pyridinone derivatives and their use as antimalaria agents” (Glaxo Group Limited, priority 2009, dated 2010):
Structures can show the parent of a compound that is named as a salt.

Test system: Plasmodium falciparum
Experiment: In vitro anti-malarial activity against Plasmodium falciparum, IC50 assay / [3H]-Hypoxanthine incorporation assay
Assay type: cell-based
Details: Erythrocyte
Experimental: The compounds of this invention may be tested in one of several biological assays to determine the concentration of compound which is required to have a given pharmacological effect. In vitro anti-malarial activity against Plasmodium falciparum. IC50 assay / [^3H]-Hypoxanthine assay
The culture medium comprised RPMI 1640 with 25mM HEPES, sodium bicarbonate and glutamine (GIBCO™ cat. ref.: 52400), supplemented with 10% of pooled human sera AB (Irvine Scientific, cat. ref.: 5009) and HT supplement (0.15 mM hypoxanthine and 24 µM thymidine), (GIBCO™ cat. ref.: 41065). Human sera were decomplemented 30 min. at 56°C, aliquoted and stored frozen at -20°C until use in this culture medium.
This culture medium ("complete medium") was usually prepared fresh just before use and pre-warmed to 37°C.
Red blood cells O+ stock suspensions were prepared from whole blood bags coming from incomplete blood donation, provided by the Spanish Red Cross (<25 days after sampling). This "whole blood" was aliquoted and stored at 4°C.
To prepare red blood cells for the assay, the whole blood was centrifuged and washed 3 times with RPMI without serum. The upper phase, containing white blood cells was removed. The washed red blood cells were kept as a 50 % suspension in complete medium. The prepared cells were stored at 4°C and were employed in the assay at any time up to 4 days after preparation.
Test compounds were dissolved at 2 mg/ml in 100% DMSO on the day of the assay. If necessary, complete dissolution was achieved by gentle heating (the mixture was heated at a temperature <37°C) and sonication (sonication bath).
For IC50 determinations, 10 serial 2-fold dilutions were prepared in complete medium in the presence of a constant amount of DMSO. Any obvious signs of insolubility of the stock solutions in 100% DMSO or precipitation when these solutions were diluted in assay media, were recorded.
Plasmodium falciparum strains were maintained in complete medium at an hematocrit of 5% in continuous culture using a method adapted from that published by Trager and Jensen(1) and Traeger(2).
The parasitemia was calculated by counting the percentage of parasitized erythrocytes by optical microscopy. Thin films of blood were made every day from each culture flask, fixed with methanol and stained for 10 min. in Giemsa (Merck, cat. ref.: 1.09204) at 10 % in buffered water pH 7.2. The glass slides were observed and counted with an optical microscope (Nikon, Eclipse E200) equipped with a 100 X immersion oil objective.
The culture was maintained at an hematocrit of 5%, with a daily change of medium and was diluted when parasitemia had reached about 5%.
[^3H] Hypoxanthine incorporation assay was conducted using a method adapted from Desjardins et al. (3). The assays were performed in 96 wells flat bottom microplates. • 1. Serial dilutions of the test compounds (50µl of a 5X solution / well) were deposited in duplicate. Compounds of the invention were tested in this assay. Chloroquine and Atovaquone were used as control compounds for each assay. • 2. […] [^3H]-Hypoxanthine (Amersham Biosciences, cat. ref.: TRK74) was added extemporaneously to the inoculum suspension at a concentration of 1 µCi/ml (equating to […]). 200 µl of the resulting suspension was distributed into each well (other than the control well H12 described below) leading to a final volume of 250 µl per well, at 2% of hematocrit and 0.5 % of parasitemia / well. • 4. […]

[1] = Plasmodium falciparum strains in parasitized red blood cells, [3H]-hypoxanthine incorporation, 48 hours at 37°C

Row | IC50 [1] | SMILES | IC50 (Plasmodium falciparum)
1 | < 0.125 µg/mL | Cc1[nH]c(C)c(-c2ccc(C#CCN(C)Cc3ccc(OC(F)(F)F)cc3)cc2)c(=O)c1Cl.Cl [Example 19, 3-Chloro-2,6-dimethyl-5-(4-{3-[methyl({4-[(trifluoromethyl)oxy]phenyl}methyl)amino]-1-propyn-1-yl}phenyl)-4(1H)-pyridinone hydrochloride] | 
2 | < 0.125 µg/mL | Cc1[nH]c(C)c(-c2ccc(-c3ccc(CN(C)Cc4ccc(OC(F)(F)F)cc4)cc3)cc2)c(=O)c1Cl.Cl [Example 35, 3-Chloro-2,6-dimethyl-5-(4'-{[methyl({4-[(trifluoromethyl)oxy]phenyl}methyl)amino]methyl}-4-biphenylyl)-4(1H)-pyridinone hydrochloride] | 
3 | < 0.125 µg/mL | Cc1[nH]c(C)c(-c2ccc(CN3CCC(c4ccc(OC(F)(F)F)cc4)CC3)cc2)c(=O)c1Cl.Cl [Example 24, 3-Chloro-2,6-dimethyl-5-{4-[(4-{4-[(trifluoromethyl)oxy]phenyl}-1-piperidinyl)methyl]-phenyl}-4(1H)-pyridinone hydrochloride] | 
4 | < 0.125 µg/mL | Cc1[nH]c(C)c(-c2ccc(C#CCN3CCC(c4ccccc4)CC3)cc2)c(=O)c1Cl [Example 10, 3-Chloro-2,6-dimethyl-5-{4-[3-(4-phenyl-1-piperidinyl)-1-propyn-1-yl]phenyl}-4(1H)-pyridinone] | 
5 | < 0.125 µg/mL | Cc1[nH]c(C)c(-c2ccc(C#CCN3CCC(c4ccc(OC(F)(F)F)cc4)CC3)cc2)c(=O)c1Cl.O=C(O)C(F)(F)F [Example 22, 3-Chloro-2,6-dimethyl-5-{4-[3-(4-{4-[(trifluoromethyl)oxy]phenyl}-1-piperidinyl)-1-propyn-1-yl]phenyl}-4(1H)-pyridinone trifluoroacetate] | 
6 | < 0.125 µg/mL | CC(=O)Oc1c(Cl)c(C)nc(C)c1-c1ccc(-c2ccc(CN3CCC(c4ccc(OC(F)(F)F)cc4)CC3)cc2)cc1.Cl [Example 56, 3-Chloro-2,6-dimethyl-5-{4'-[(4-{4-[(trifluoromethyl)oxy]phenyl}-1-piperidinyl)methyl]-4-biphenylyl}-4-pyridinyl acetate hydrochloride] | 
7 | < 0.125 µg/mL | CCCN(CC#Cc1ccc(-c2c(C)[nH]c(C)c(Cl)c2=O)cc1)Cc1ccc(OC(F)(F)F)cc1.Cl [Example 21, 3-Chloro-2,6-dimethyl-5-(4-{3-[propyl({4-[(trifluoromethyl)oxy]phenyl}methyl)amino]-1-propyn-1-yl}phenyl)-4(1H)-pyridinone hydrochloride] | 
8 | < 0.125 µg/mL | CCCN(CC#Cc1ccc(-c2c(C)[nH]c(C)c(Cl)c2=O)cc1)Cc1ccc(OC(F)(F)F)cc1.O=C(O)C(F)(F)F [Example 6, 3-Chloro-2,6-dimethyl-5-(4-{3-[propyl({4-[(trifluoromethyl)oxy]phenyl}methyl)amino]-1-propyn-1-yl}phenyl)-4(1H)-pyridinone trifluoroacetate] | 
9 | < 0.125 µg/mL | CCCN(CC#Cc1ccc(-c2c(C)[nH]c(C)c(Cl)c2=O)cc1)Cc1ccc(OC(F)(F)F)cc1 [Example 20, 3-Chloro-2,6-dimethyl-5-(4-{3-[propyl({4-[(trifluoromethyl)oxy]phenyl}methyl)amino]-1-propyn-1-yl}phenyl)-4(1H)-pyridinone] | 
10 | < 0.125 µg/mL | Cc1[nH]c(C)c(-c2cccc(CN(C)Cc3ccc(OC(F)(F)F)cc3)c2)c(=O)c1Cl.Cl [Example 25, 3-Chloro-2,6-dimethyl-5-(3-{[methyl({4-[(trifluoromethyl)oxy]phenyl}methyl)amino]-methyl}phenyl)-4(1H)-pyridinone hydrochloride] | 
11 | < 0.125 µg/mL | Cc1[nH]c(C)c(-c2ccc(-c3ccc(CN4CCC(c5ccc(OC(F)(F)F)cc5)CC4)cc3)cc2)c(=O)c1Cl.Cl [Example 33, 3-Chloro-2,6-dimethyl-5-{4'-[(4-{4-[(trifluoromethyl)oxy]phenyl}-1-piperidinyl)methyl]-4-biphenylyl}-4(1H)-pyridinone hydrochloride] | 
12 | < 0.125 µg/mL | Cc1[nH]c(C)c(-c2ccc(C#CCNCc3ccc(OC(F)(F)F)cc3)cc2)c(=O)c1Cl [Example 8, 3-Chloro-2,6-dimethyl-5-(4-{3-[({4-[(trifluoromethyl)oxy]phenyl}methyl)amino]-1-propyn-1-yl}phenyl)-4(1H)-pyridinone] | 
13 | < 0.125 µg/mL | Cc1[nH]c(C)c(-c2ccc(C#CCN3CCC(c4ccc(OC(F)(F)F)cc4)CC3)cc2)c(=O)c1Cl.Cl [Example 11, 3-Chloro-2,6-dimethyl-5-{4-[3-(4-{4-[(trifluoromethyl)oxy]phenyl}-1-piperidinyl)-1-propyn-1-yl]phenyl}-4(1H)-pyridinone hydrochloride] | 

Continued, molecule first:

Row | SMILES | IC50 [1] | IC50 (Plasmodium falciparum)
14 | Cc1[nH]c(C)c(-c2ccc(C#CCN(C)Cc3ccc(Cl)cc3Cl)cc2)c(=O)c1Cl.Cl [Example 46, 3-Chloro-5-(4-{3-[[(2,4-dichlorophenyl)methyl](methyl)amino]-1-propyn-1-yl}phenyl)-2 ,6-dimethyl-4(1H)-pyridinone hydrochloride] | < 0.125 µg/mL | 
15 | Cc1[nH]c(C)c(-c2ccc(C#CCN3CCCCC3c3ccccc3)cc2)c(=O)c1Cl.Cl (stereo not drawn) [Example 13, 3-Chloro-2,6-dimethyl-5-{4-[3-(2-phenyl-1-piperidinyl)-1-propyn-1-yl]phenyl}-4(1H)-pyridinone hydrochloride] | < 0.125 µg/mL | 
16 | Cc1[nH]c(C)c(-c2ccc(C#CCN(Cc3ccccc3)Cc3ccccc3)cc2)c(=O)c1Cl.Cl [Example 12, 3-(4-{3-[Bis(phenylmethyl)amino]-1-propyn-1-yl}phenyl)-5-chloro-2,6-dimethyl-4(1H)-pyridinone hydrochloride] | < 0.125 µg/mL | 
17 | Cc1[nH]c(C)c(-c2ccc(C#CCN(C)Cc3ccc(S(C)(=O)=O)cc3)cc2)c(=O)c1Cl.Cl [Example 47, 3-Chloro-2,6-dimethyl-5-{4-[3-(methyl{[4-(methylsulfonyl)phenyl]methyl}amino)-1-propyn-1-yl]phenyl}-4(1H)-pyridinone hydrochloride] | < 0.125 µg/mL | 
18 | Cc1[nH]c(C)c(-c2ccc(C#CCN(C)Cc3cccn3C)cc2)c(=O)c1Cl.Cl [Example 44, 3-Chloro-2,6-dimethyl-5-[4-(3-{methyl[(1-methyl-1H-pyrrol-2-yl)methyl]amino}-1-propyn-1-yl)phenyl]-4(1H)-pyridinone hydrochloride] | < 0.125 µg/mL | 
19 | Cc1ccc(CN(C)CC#Cc2ccc(-c3c(C)[nH]c(C)c(Cl)c3=O)cc2)s1.Cl [Example 42, 3-Chloro-2,6-dimethyl-5-[4-(3-{methyl[(5-methyl-2-thienyl)methyl]amino}-1-propyn-1-yl)phenyl]-4(1H)-pyridinone hydrochloride] | < 0.125 µg/mL | 
20 | Cc1[nH]c(C)c(-c2ccc(C(F)(F)CN3CCC(C(F)(F)F)CC3)nc2)c(=O)c1Cl [Example 67, 5-chloro-6'-{1,1-difluoro-2-[4-(trifluoromethyl)-1-piperidinyl]ethyl}-2,6-dimethyl-3,3'-bipyridin-4(1H)-one] | < 0.125 µg/mL | 
21 | Cc1[nH]c(C)c(-c2ccc(C#CCN(Cc3ccc(OC(F)(F)F)cc3)CC3CCCC3)cc2)c(=O)c1Cl [Example 38, 3-Chloro-5-(4-{3-[(cyclopentylmethyl)({4-[(trifluoromethyl)oxy]phenyl}methyl)aminol-1-propyn-1-yl}phenyl)-2,6-dimethy)-4(1H)-pyridinone hydrochloride] |  | < 0.125 µg/mL
22 | Cc1[nH]c(C)c(-c2ccc(C#CCN(C)CCC(F)(F)F)cc2)c(=O)c1Cl.Cl [Example 49, 3-Chloro-2,6-dimethyl-5-(4-{3-[methyl(3,3,3-trifluoropropyl)amino]-1-propyn-1-yl}phenyl)-4(1H)-pyridinone hydrochloride] | < 0.125 µg/mL | 
23 | Cc1[nH]c(C)c(-c2ccc(C#CCN(C)Cc3ccsc3)cc2)c(=O)c1Cl.Cl [Example 45, 3-Chloro-2,6-dimethyl-5-(4-{3-[methyl(3-thienylmethyl)amino]-1-propyn-1-yl}phenyl)-4(1H)-pyridinone hydrochloride] | < 0.125 µg/mL | 
24 | Cc1[nH]c(C)c(-c2ccc(C#CCN(C)Cc3ccc(F)cc3F)cc2)c(=O)c1Cl.Cl [Example 40, 3-Chloro-5-(4-{3-[[(2,4-difluorophenyl)methyl](methyl)amino]-1-propyn-1-yl}phenyl)-2,6-dimethyl-4(1H)-pyridinone hydrochloride] | < 0.125 µg/mL | 
